Measurements published in ChEMBL document CHEMBL1146954, “Design and synthesis of 7H-pyrrolo[2,3-d]pyrimidines as focal adhesion kinase inhibitors. Part 1” (Bioorg Med Chem Lett, 2006).

Target: Focal adhesion kinase 1 (Homo sapiens, UniProt Q05397)
Experiment: Inhibitory activity against FAK

Focal adhesion kinase 1, sequence (Q05397 whole entry): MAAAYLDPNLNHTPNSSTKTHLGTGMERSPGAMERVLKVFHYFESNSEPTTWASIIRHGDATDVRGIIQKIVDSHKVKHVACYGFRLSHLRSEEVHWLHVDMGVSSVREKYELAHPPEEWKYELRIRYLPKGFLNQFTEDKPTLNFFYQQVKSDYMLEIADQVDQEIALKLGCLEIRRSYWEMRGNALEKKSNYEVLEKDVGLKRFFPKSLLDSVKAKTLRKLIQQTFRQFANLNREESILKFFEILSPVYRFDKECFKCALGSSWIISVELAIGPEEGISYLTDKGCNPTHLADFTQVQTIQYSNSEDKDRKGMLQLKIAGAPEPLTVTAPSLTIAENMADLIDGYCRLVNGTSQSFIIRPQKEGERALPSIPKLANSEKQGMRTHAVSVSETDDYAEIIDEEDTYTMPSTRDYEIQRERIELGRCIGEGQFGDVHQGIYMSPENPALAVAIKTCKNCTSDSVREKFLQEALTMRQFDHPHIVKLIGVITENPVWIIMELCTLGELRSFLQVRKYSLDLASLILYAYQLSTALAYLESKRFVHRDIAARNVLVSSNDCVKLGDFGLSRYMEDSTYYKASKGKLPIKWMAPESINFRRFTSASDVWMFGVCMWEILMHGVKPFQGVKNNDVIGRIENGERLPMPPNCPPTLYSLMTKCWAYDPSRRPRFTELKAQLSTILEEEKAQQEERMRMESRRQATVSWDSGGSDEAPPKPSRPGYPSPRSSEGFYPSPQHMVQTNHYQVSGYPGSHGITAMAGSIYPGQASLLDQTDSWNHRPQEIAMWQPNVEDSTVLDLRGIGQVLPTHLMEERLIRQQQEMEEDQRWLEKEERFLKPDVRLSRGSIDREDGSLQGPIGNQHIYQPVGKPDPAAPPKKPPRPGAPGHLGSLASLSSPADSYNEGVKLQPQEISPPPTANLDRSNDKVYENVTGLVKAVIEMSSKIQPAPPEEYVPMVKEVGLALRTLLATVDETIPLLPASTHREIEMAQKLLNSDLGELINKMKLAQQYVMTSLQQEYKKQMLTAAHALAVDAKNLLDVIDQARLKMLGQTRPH

Row | Structure (SMILES) | IC50
1 | COc1cc(Nc2ncc3ccn(-c4ccccn4)c3n2)cc(OC)c1OC | 200 nM
2 | COc1cc(Nc2ncc(Br)c(Nc3ccccn3)n2)cc(OC)c1OC | 100 nM
